Data reported in patent US7384943B2, “Substituted chroman derivatives” (AstraZeneca AB, priority 1997, dated 2008).

Row | Compound | melting point
1 | CN1CCN(c2cccc3c2C[C@H](NC(=O)c2ccc(C(=O)N4CCOCC4)cc2)CO3)CC1 [Example 45, (S)-N-[5-(4-Methylpiperazin-1-yl)-3,4 dihydro-2H-1-benzopyran-3-yl)-4-(morpholinocarbonyl)benzamide] | 222 °C (dec.)
2 | CN1CCN(c2cccc3c2C[C@H](NC(=O)c2ccc(N4CCNCC4)cc2)CO3)CC1 [Example 43, (S)-N-[5-(4-Methylpiperazin-1-yl)-3,4 dihydro-2H-1-benzopyran-3-yl]-4-(piperazin-1-yl)benzamide] | > 102 °C
3 | CN1CCN(c2cccc3c2C[C@H](NC(=O)c2ccc(N4CCNC(=O)CC4)cc2)CO3)CC1 [Example 35, (S)-N-[5-(4-Methylpiperazin-1-yl)-3,4-dihydro-2H-1-benzopyran-3-yl]-4-(hexa hydro-1,4-diazepin-5-on-1-yl)benzamide] | 244 to 247 °C (dec.)
4 | CN1CCN(c2cccc3c2C[C@H](NC(=O)c2ccc(C(F)(F)F)cc2)CO3)CC1 [Example 19, (S)-N-[5-(4-Methylpiperazin-1-yl)-3,4-dihydro-2H-1-benzopyran-3-yl]-4-trifluoromethylbenzamide] | 212 to 214 °C
5 | CN1CCN(c2cccc3c2C[C@H](NC(=O)c2ccc(C(F)(F)F)cc2C(F)(F)F)CO3)CC1 [Example 28, (S)-N-[5-(4-Methylpiperazin-1-yl)-3,4-dihydro-2H-1-benzopyran-3-yl]-2,4-bis(trifluoromethyl)benzamide] | 202 to 203 °C
6 | CN1CCN(c2cccc3c2C[C@H](NC(=O)c2ccc(C(=O)N(C)C)cc2)CO3)CC1 [Example 46, (S)-N-[5-(4-Methylpiperazin-1-yl)-3,4-dihydro-2H-benzopyran-3-yl)-4-(N,N-dimethylaminocarbonyl)benzamide] | 219 °C (dec.)
7 | CN1CCN(c2cccc3c2C[C@H](NC(=O)c2ccc(N4CCN(CCO)CC4)cc2)CO3)CC1 [Example 48, (S)-N-[5-(4-Methylpiperazin-1-yl)-3,4 dihydro-2H-1-benzopyran-3-yl]-4-[4-(2-hydroxyethyl)-piperazin-1-yl]benzamide] | 211 to 212 °C
8 | CC(=O)N1CCN(c2ccc(C(=O)N[C@@H]3COc4cccc(N5CCN(C)CC5)c4C3)cc2)CC1 [Example 44, (S)-N-[5-(4-Methylpiperazin-1-yl)-3,4 dihydro-2H-1-benzopyran-3-yl]-4-(4-acetylpiperazin-1-yl)benzamide] | 88 °C (dec.)
9 | CN1CCN(c2cccc3c2C[C@H](NC(=O)c2ccc(N4CCOCC4)cc2)CO3)CC1 [Example 14, (S)-N-[5-(4-Methylpiperazin-1-yl)-3,4-dihydro-2H-1-benzopyran-3-yl]-4-morpholinobenzamide] | 210 to 212 °C
